Data as given in article PMC13059705, “Peptidoglycan DD-peptidases have distinct activities that impact fitness of Acinetobacter baumannii” (mBio, 2026).

How the values were obtained:
[1] = molecular target: T1, PBP5/6a (Acinetobacter baumannii, UniProt G1C735); experiment: bocillin-binding assay with SDS-PAGE; conditions: covalent; labelled compound; used to confirm identity of the purified protein
T1 construct: gene dacC; Triton X-100 extraction, Ni-NTA
T1 sequence (G1C735 20-382): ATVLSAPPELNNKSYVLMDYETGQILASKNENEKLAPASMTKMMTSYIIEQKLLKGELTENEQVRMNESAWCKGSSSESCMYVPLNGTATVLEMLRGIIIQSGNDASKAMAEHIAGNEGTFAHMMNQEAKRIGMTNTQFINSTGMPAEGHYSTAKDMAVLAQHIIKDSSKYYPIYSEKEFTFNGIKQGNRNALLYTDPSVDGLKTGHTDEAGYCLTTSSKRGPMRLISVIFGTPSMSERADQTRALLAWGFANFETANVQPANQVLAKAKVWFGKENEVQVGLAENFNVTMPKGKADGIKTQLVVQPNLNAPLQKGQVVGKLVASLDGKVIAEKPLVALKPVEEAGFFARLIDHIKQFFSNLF

[2] = molecular target: T2, PBP6b (Acinetobacter baumannii, UniProt A0ABX6CI93); experiment: bocillin-binding assay with SDS-PAGE; conditions: covalent; labelled compound; used to confirm identity of the purified protein
T2 construct: gene dacD; Triton X-100 extraction, Ni-NTA
T2 sequence (A0ABX6CI93 22-439): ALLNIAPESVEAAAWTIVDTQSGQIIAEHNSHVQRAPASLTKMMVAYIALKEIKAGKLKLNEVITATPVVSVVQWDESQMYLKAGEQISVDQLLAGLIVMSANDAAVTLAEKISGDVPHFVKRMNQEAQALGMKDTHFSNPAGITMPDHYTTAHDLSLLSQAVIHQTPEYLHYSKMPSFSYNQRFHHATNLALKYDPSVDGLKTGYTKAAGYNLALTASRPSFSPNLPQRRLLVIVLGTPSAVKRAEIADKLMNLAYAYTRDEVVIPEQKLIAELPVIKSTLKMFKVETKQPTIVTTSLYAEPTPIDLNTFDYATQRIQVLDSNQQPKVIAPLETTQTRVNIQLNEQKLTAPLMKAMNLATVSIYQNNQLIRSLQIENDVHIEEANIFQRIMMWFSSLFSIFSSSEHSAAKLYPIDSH

What does the source list for Cc1cc(C)n2c1C=C1C=CC(CCC(=O)Nc3ccc(OCC(=O)N[C@@H]4C(=O)N5[C@@H]4SC(C)(C)[C@@H]5C(=O)O)cc3)=[N+]1[B-]2(F)F [bocillin]?
bocillin-binding assay with SDS-PAGE [1]: Protein purity and identity were confirmed by SDS-PAGE and bocillin-binding assays; bocillin-binding assay with SDS-PAGE [2]: Protein purity and identity were confirmed by SDS-PAGE and bocillin-binding assays
